In DBAASP:
≈ marks a conversion by molar mass, not a printed value. Where “and” joins values, the source holds several entries; their conditions need not be identical. Equal values may be shown once.

Legend:
Assay in all cases: ≥ marks a high value that may be exact or a test limit, other limits are often not marked, values filed in µg/mL are converted to µM
[1] = test system: Candida albicans ATCC 90028
[2] = test system: Escherichia coli ATCC 25726
[3] = test system: Klebsiella pneumoniae ATCC 700603
[4] = test system: Acinetobacter baumannii I NM8
[5] = test system: Staphylococcus aureus ATCC 25923
[6] = test system: Escherichia coli ATCC 25922
[7] = test system: Bacillus licheniformis X39
Serratia rubidaea X01 = test system: Serratia rubidaea X01
[8] = test system: Enterococcus faecalis 981
[9] = test system: Staphylococcus carnosus KHS
[10] = test system: Rhodococcus rhodochrous X15
[11] = test system: Psychrobacter faecalis X29
Candida sp. = test system: Candida sp.
[12] = test system: Bacillus megaterium ATCC 17749
[13] = test system: Staphylococcus epidermidis ATCC 12228
[14] = test system: Micrococcus luteus ATCC 4698
[15] = test system: Vibrio metschnikovii NCTC 8483
[16] = test system: Staphylococcus aureus ATCC 25293
Fusarium oxysporum = test system: Fusarium oxysporum
[17] = test system: Vibrio alginolyticus ATCC 17749
[18] = test system: Salmonella enterica subsp. enterica serovar Newport
[19] = test system: Escherichia coli 363 ATCC 11775
[20] = test system: Candida albicans ATCC 2002
[21] = test system: Helicobacter pylori NCTC 11637
Shigella dysenteriae = test system: Shigella dysenteriae
[22] = test system: Staphylococcus aureus ATCC 2592
[23] = test system: Enterobacter cloacae ATCC 13047
[24] = test system: Pseudomonas aeruginosa CMCCB 1010
Escherichia coli 37 = test system: Escherichia coli 37
[25] = test system: Pseudomonas aeruginosa ATCC 27853
[26] = test system: Staphylococcus aureus USA 300
[27] = test system: Candida parapsilosis ATCC 22019
Klebsiella pneumoniae = test system: Klebsiella pneumoniae
Pseudomonas aeruginosa = test system: Pseudomonas aeruginosa
Staphylococcus aureus 37 = test system: Staphylococcus aureus 37
Escherichia coli 218 = test system: Escherichia coli 218
Escherichia coli K-12 = test system: Escherichia coli K-12
Escherichia coli 117 = test system: Escherichia coli 117
[28] = test system: Enterococcus faecalis ATCC 29212
[29] = test system: Escherichia coli ATCC 35218
Saccharomyces cerevisiae = test system: Saccharomyces cerevisiae
Aspergillus flavus = test system: Aspergillus flavus
Bacillus megaterium = test system: Bacillus megaterium

For `CC[C@H](C)[C@H](NC(=O)[C@@H](NC(=O)[C@H](CO)NC(=O)[C@H](C)NC(=O)[C@H](CC(C)C)NC(=O)CN)[C@@H](C)O)C(=O)NCC(=O)N[C@@H](CO)C(=O)N[C@@H](CC(C)C)C(=O)N[C@@H](CC(C)C)C(=O)NCC(=O)N[C@@H](CCCCN)C(=O)N[C@@H](Cc1ccccc1)C(=O)N[C@@H](C)C(=O)N[C@@H](CCCCN)C(=O)NCC(=O)NCC(=O)N[C@@H](C)C(=O)N[C@@H](CCC(N)=O)C(=O)N[C@@H](C)C(=O)N[C@@H](Cc1ccccc1)C(=O)N[C@@H](CC(C)C)C(=O)N[C@@H](CCC(N)=O)C(=O)N1CCC[C@H]1C(=O)N[C@@H](CCCCN)C(=O)O` [GLASTIGSLLGKFAKGGAQAFLQPK], the MIC [1] was ≥ 50 µM, the MIC [2] was ≥ 160 µM and the MIC [3] was > 50 µM. The MIC [4] was 25 µM (≈ 61.5 µg/mL) and the MIC [5] was 80 µM and 100 µM.

`CC[C@H](C)[C@H](NC(=O)CNC(=O)[C@H](Cc1ccccc1)NC(=O)[C@H](CCC(=O)O)NC(=O)[C@H](CCCCN)NC(=O)[C@H](CC(C)C)NC(=O)[C@H](CCCCN)NC(=O)[C@H](CC(=O)O)NC(=O)[C@H](CC(C)C)NC(=O)[C@@H](NC(=O)CN)[C@@H](C)CC)C(=O)N[C@@H](CO)C(=O)N[C@@H](C)C(=O)N[C@@H](C)C(=O)N[C@@H](CCCN=C(N)N)C(=O)NCC(=O)N[C@H](C(=O)N[C@@H](C)C(=O)N[C@@H](CCC(N)=O)C(=O)N[C@@H](CO)C(=O)N[C@@H](CC(C)C)C(=O)N[C@@H](CC(C)C)C(=O)N[C@@H](CC(N)=O)C(=O)N[C@H](C(=O)N[C@@H](C)C(=O)N[C@@H](CO)C(=O)N[C@H]1CSSC[C@@H](C(=O)O)NC(=O)[C@H]([C@@H](C)O)NC(=O)[C@H](CCCCN)NC(=O)[C@H](C)NC(=O)[C@H](CC(C)C)NC(=O)[C@H](CCCCN)NC1=O)[C@@H](C)O)C(C)C` [GILDKLKEFGISAARGVAQSLLNTASCKLAKTC] was tested, and the MIC [6] was 150 µM (≈ 511 µg/mL), the MIC [7] was ≥ 75 µM and the MIC (Serratia rubidaea X01) was 2.3 µM (≈ 7.83 µg/mL). For the same molecule, the MIC [8] was ≥ 37.5 µM, the MIC [9] was ≥ 37.5 µM and the MIC [10] was 2.3 µM (≈ 7.83 µg/mL). It also gave an MIC [5] of 37.5 µM (≈ 128 µg/mL) and an MIC [11] of 2.3 µM (≈ 7.83 µg/mL).

`CC(C)C[C@@H]1NC(=O)[C@H](CCCN=C(N)N)NC(=O)[C@H](Cc2cnc[nH]2)NC(=O)[C@H](Cc2c[nH]c3ccccc23)NC(=O)CNC(=O)CNC(=O)[C@@H](NC(=O)[C@H](Cc2ccc(O)cc2)NC(=O)CNC(=O)CNC(=O)[C@@H](N)CO)CSSC[C@@H](C(=O)N[C@H](C(=O)N[C@@H](CO)C(=O)N[C@@H](Cc2ccc(O)cc2)C(=O)N[C@@H](CCCN=C(N)N)C(=O)N[C@@H](CO)C(=O)NCC(=O)O)[C@@H](C)O)NC(=O)[C@H](CCCN=C(N)N)NC1=O` [SGGYCGGWHRLRCTSYRSG] was tested, and the MIC (Candida sp.) was 8 µM (≈ 16.8 µg/mL), the MIC [12] was ≥ 34 µM and the MIC [13] was 41 µM (≈ 86.2 µg/mL). The MIC [14] was 16 µM (≈ 33.6 µg/mL), the MIC [15] was ≥ 75 µM and the MIC [16] was 17 µM (≈ 35.7 µg/mL). The MIC (Fusarium oxysporum) was 13 µM (≈ 27.3 µg/mL), the MIC [17] was ≥ 75 µM and the MIC [18] was ≥ 75 µM. The MIC [19] was ≥ 62 µM.

An MIC [6] of 19.8 µM (≈ 60 µg/mL), an MIC [20] of 9.91 µM (≈ 30 µg/mL) and an MIC [21] of 9.91 µM (≈ 30 µg/mL) were found for `CC[C@H](C)[C@H](NC(=O)[C@H](CCC(N)=O)NC(=O)[C@H](CCCCN)NC(=O)[C@H](Cc1c[nH]c2ccccc12)NC(=O)[C@H](CO)NC(=O)[C@H](CCC(N)=O)NC(=O)[C@@H]1CCCN1C(=O)[C@H](CC(C)C)NC(=O)[C@H](CCCCN)NC(=O)[C@H](C)NC(=O)[C@H](CCC(=O)O)NC(=O)[C@H](CCCCN)NC(=O)[C@@H](NC(=O)[C@H](CCSC)NC(=O)[C@@H](NC(=O)[C@@H](NC(=O)[C@@H](NC(=O)[C@@H](N)CO)[C@@H](C)CC)[C@@H](C)CC)[C@@H](C)O)[C@@H](C)O)C(=O)N[C@@H](C)C(=O)N[C@H]1CSSC[C@@H](C(=O)O)NC(=O)[C@H]([C@@H](C)O)NC(=O)[C@H](CC(N)=O)NC(=O)[C@H](Cc2ccc(O)cc2)NC(=O)[C@H](CC(C)C)NC(=O)[C@H](CCCN=C(N)N)NC1=O` [SIITMTKEAKLPQSWKQIACRLYNTC] in this work. It also gave an MIC (Shigella dysenteriae) of 19.8 µM (≈ 60 µg/mL) and an MIC [22] of 4.95 µM (≈ 15 µg/mL).

An MIC [23] of 13.5 µM (≈ 20 µg/mL), an MIC [6] of 13.5 µM (≈ 20 µg/mL) and an MIC [20] of 6.76 µM (≈ 10 µg/mL) were found for `CC[C@H](C)[C@H](N)C(=O)N[C@@H](CC(N)=O)C(=O)N[C@@H](CC(C)C)C(=O)N[C@@H](CCCCN)C(=O)N[C@@H](C)C(=O)N[C@H](C(=O)N[C@@H](C)C(=O)N[C@@H](C)C(=O)N[C@@H](CC(C)C)C(=O)N[C@@H](C)C(=O)N[C@@H](CCCCN)C(=O)N[C@@H](CCCCN)C(=O)N[C@@H](CC(C)C)C(=O)N[C@@H](CC(C)C)C(=O)O)[C@@H](C)CC` [INLKAIAALAKKLL] in this work. For the same molecule, the MIC [24] was 27 µM (≈ 40 µg/mL), the MIC (Escherichia coli 37) was 6.76 µM (≈ 10 µg/mL) and the MIC [1] was 6.76 µM (≈ 10 µg/mL). For the same molecule, the MIC [25] was 3.38 µM (≈ 5 µg/mL), the MIC [26] was ≥ 100 µM and the MIC [27] was 27 µM (≈ 40 µg/mL). It also gave an MIC (Klebsiella pneumoniae) of 6.76 µM (≈ 10 µg/mL), an MIC (Pseudomonas aeruginosa) of 3.38 µM (≈ 5 µg/mL) and an MIC (Staphylococcus aureus 37) of 6.76 µM (≈ 10 µg/mL). The MIC (Shigella dysenteriae) was 3.38 µM (≈ 5 µg/mL), the MIC [3] was 6.76 µM (≈ 10 µg/mL) and the MIC (Escherichia coli 218) was 13.5 µM (≈ 20 µg/mL). For the same molecule, the MIC (Escherichia coli K-12) was 25 µM (≈ 37 µg/mL), the MIC (Escherichia coli 117) was 27 µM (≈ 40 µg/mL) and the MIC [28] was 1.69 µM (≈ 2.5 µg/mL). For the same molecule, the MIC [5] was 3.38 µM (≈ 5 µg/mL).

For `CC[C@H](C)[C@H](NC(=O)[C@H](Cc1cnc[nH]1)NC(=O)[C@H](CO)NC(=O)[C@H](CC(C)C)NC(=O)[C@@H](N)Cc1ccccc1)C(=O)N[C@@H](C)C(=O)NCC(=O)N[C@@H](Cc1ccccc1)C(=O)N[C@@H](CC(C)C)C(=O)N[C@@H](CO)C(=O)N[C@@H](CC(N)=O)C(=O)N[C@@H](CC(C)C)C(=O)N[C@@H](Cc1ccccc1)C(=O)O` [FLSHIAGFLSNLF], the MIC [6] was 161 µM (≈ 236 µg/mL), the MIC [29] was ≥ 80 µM and the MIC (Saccharomyces cerevisiae) was 10 µM (≈ 14.7 µg/mL). For the same molecule, the MIC [1] was 20 µM (≈ 29.3 µg/mL), the MIC (Aspergillus flavus) was 10 µM (≈ 14.7 µg/mL) and the MIC [25] was > 161 µM. For the same molecule, the MIC [27] was 20 µM (≈ 29.3 µg/mL), the MIC (Bacillus megaterium) was 4 µM (≈ 5.86 µg/mL) and the MIC [28] was > 80 µM. For the same molecule, the MIC [5] was 10 µM (≈ 14.7 µg/mL).
